Target: T1, human TAAR1 receptor (Homo sapiens, UniProt Q96RJ0)
T1 sequence (Q96RJ0 1-339): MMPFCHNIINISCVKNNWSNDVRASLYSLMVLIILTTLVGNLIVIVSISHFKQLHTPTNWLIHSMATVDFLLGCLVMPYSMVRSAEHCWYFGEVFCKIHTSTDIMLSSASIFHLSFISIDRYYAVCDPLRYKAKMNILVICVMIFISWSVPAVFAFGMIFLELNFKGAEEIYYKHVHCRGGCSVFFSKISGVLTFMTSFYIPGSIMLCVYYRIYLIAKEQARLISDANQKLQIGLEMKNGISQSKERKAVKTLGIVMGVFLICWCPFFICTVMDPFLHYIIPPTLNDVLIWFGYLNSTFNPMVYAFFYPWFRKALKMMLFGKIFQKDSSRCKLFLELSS
Test: Human TAAR1 agonist assay
Conditions: for fold less active for TAAR1 than β-PEA (2): EC50 ratio versus β-PEA (2); for fold less potent for TAAR1 than racemic ulotaront 20: EC50 ratio versus racemic ulotaront 20

For `NC[C@H](O)c1ccc(O)cc1` [6a, (−)-octopamine, reference compound], the “fold less active for TAAR1 than p-tyramine (4)” value was 21 fold.
For `NC[C@@H](O)c1ccc(O)cc1` [6b, (+)-octopamine, reference compound], the “fold less active for TAAR1 than p-tyramine (4)” value was 54 fold.
`CNC[C@H](O)c1ccc(O)cc1` [7a, (−)-synephrine, reference compound] was tested, and the “fold reduced TAAR1 activity compared to 6a” value (EC50 ratio versus (−)-octopamine 6a) was “approximately 3 fold”.
`CNCCc1ccccc1` [compound 3, N-methylphenethylamine, reference compound] was tested, and the “fold less active for TAAR1 than β-PEA (2)” value (shortened to “fold less active … (2)”) was “approximately 10 fold”.
`NCCc1ccc(O)cc1` [compound 4, p-tyramine, reference compound] was tested, and the “fold less active … (2)” value was “about 5 fold”.
In the case of `NCCc1cccc(O)c1` [compound 5, m-tyramine, reference compound], the “fold less active … (2)” value is reported as ~23 fold.
For `NCCc1c[nH]c2ccccc12` [compound 10, tryptamine, reference compound], the “fold less active … (2)” value was “about 150 fold”.
With `CNC[C@]1(C)OCCc2ccsc21` [compound 21] the “fold less potent for TAAR1 than ulotaront” value was > 1000 fold.
With `NC[C@@H]1OCCc2ccsc21` [compound 22] the “fold more potent for TAAR1 than ulotaront” value was “about 11 fold”.
`c1cc2c(s1)[C@H](CN1CCCC1)OCC2` [compound 24] was tested, and the “fold less potent for TAAR1 than ulotaront” value was 189 fold.
In the case of `NCC[C@@H]1OCCc2ccsc21` [compound 25], the “fold reduced TAAR1 activity compared to N-demethylated analogue 22” value (EC50 ratio versus 22) is reported as 67 fold.
In the case of `CNCC1OCCCc2ccsc21` (stereo not shown) [compound 26], the “fold less potent for TAAR1 than racemic ulotaront 20” value is reported as “approximately 6 fold”.
In the case of `NCC1OCCCc2ccsc21` (stereo not shown) [compound 27], the “fold more potent for TAAR1 compared to 26” value (EC50 ratio versus 26) is reported as “about 5 fold”.
`CNCC1OCCc2cscc21` (stereo not shown) [compound 28] was tested, and the “fold less potent for TAAR1 than racemic ulotaront 20” value was ~6 fold.
For `CNC[C@@H]1OCCc2sccc21` [compound 29], the “fold less potent for TAAR1 than ulotaront” value was 3 fold.
In the case of `NCCc1cccs1` [compound 30, thiophen-2-ylethanamine], the “fold more potent for TAAR1 than the other ring opened thiophene (31)” value (EC50 ratio versus 31) is reported as “approximately 3 fold”.

Reference: paper PMC8762745 (ACS Medicinal Chemistry Letters, 2021)
